Test results published in patent US8232253B2, “Treatment of lung cancer” (Ramot at Tel-Aviv University Ltd., priority 2006, dated 2012).

How the values were obtained:
Format in all cases: cell-based, human
phospho-Akt = assay: Phospho-Akt immunoblotting in A549 cells
Procedure: (§1) A549 cells were incubated for 24 or 48 h with or without FTS, as described above, and then lysed with lysis buffer as described in Haklai, R., Gana-Weisz, M., Elad, G., et al., Biochemistry 37:1306-14 (1998). The apparent amounts of K-Ras-GTP in 0.5 mg protein of total cell lysates were determined by the glutathione-S-transferase (GST)-RBD (Ras-binding domain of Raf) pull-down assay, as described in (Elad-Sfadia, G., Haklai, R., Ballan, E., Gabius, H. J., Kloog, Y., J Biol Chem 277:37169-75 (2002). The apparent amounts of Rac1-GTP and of RhoA-GTP, each in 2 mg protein of total cell lysates, were determined, respectively, by pull-down assays with GST-PBD (Rac1-binding domain of PAK1)-conjugated and GST-Rhotekin BD (Rho-binding domain of Rhotekin)-conjugated beads [Benard, V., Bohl, B. P., Bokoch, G. M, J Biol Chem 274:13198-204 (1999); Fiordalisi, J. J., Keller, P. J., Cox, A. D., Cancer Res 66:3153-61 (2006). […] Levels of phospho-ERK and phospho-Akt were determined by immunoblotting [Haklai, R., Gana-Weisz, M., Elad, G., et al., supra.] using rabbit anti phospho-ERK1/2 Ab (Santa Cruz Biotechnology, Santa Cruz, Calif.) and rabbit anti phospho-Akt Ab (Cell Signaling, Beverly, Mass.). Protein bands were visualized by enhanced chemiluminescence and quantified by densitometry using ImageJ computer software (National institutes of Health, Bethesda, Md.). […]

A549 cells = assay: Drug combination experiments, live cell counting; conditions: FTS alone 40 μM
Procedure: In drug combination experiments, cells were grown for 2 days in the absence or in the presence of 40 μM FTS and were then treated for 4 h with gemcitabine (100 or 200 nM), cisplatin (50 or 100 nM), doxorubicin (50 or 100 nM), or paclitaxel (2.5 or 5 nM). Live cells were counted after a further 3 days of incubation with or without FTS. Experiments were performed twice in quadruplicate. To determine whether A549 cells were resistant to apoptosis, an experiment to examine the survival of human lung cancer A549 cells after exposure to a chemotherapeutic agent in the presence of FTS was performed. Thus, to determine whether treatment with FTS can increase the sensitivity of A549 cells to cytotoxic drugs, A549 cells were incubated for 48 h with DMSO (control) or with 40 μM FTS, then for 4 h with gemcitabine, cisplatin, doxorubicin, or paclitaxel at the indicated concentrations. The cells were then washed and incubated for a further 72 h with DMSO or with 40 μM FTS. Live cells were collected and counted. The numbers of cells in the drug-treated cultures, expressed as percentages of the numbers in the vehicle-treated control, are shown in FIGS. 13A-13D. Values are means±SD. *P<0.05, **P<0.01, compared to vehicle-treated control.

Rac1-GTP = Rac1-GTP pull-down assay in A549 cells
Procedure: as §1

With `CC(C)=CCC/C(C)=C/CC/C(C)=C/CSc1ccccc1C(=O)O` [FTS, S-farnesylthiosalicylic acid] the “inhibition of phospho-Akt level” value (phospho-Akt) was 58±6%, the “reduction in cell numbers (mean±SD)” value (A549 cells; cisplatin experiment (FIG. 13C)) was 33±9.5% and the “reduction in cell numbers (mean±SD)” value (A549 cells; gemcitabine experiment (FIG. 13A)) was 25±6.3%. The “effect on the amount of active Rac1-GTP” value (Rac1-GTP) was “no effect”.
